Test results published in paper PMC9908032, “Novel nitroxide-bile acid conjugates inform substrate requirements for human bile acid transporters” (European journal of pharmaceutical sciences : official …, 2022).

How the values were obtained:
[1] = molecular target: T1, Na+/taurocholate cotransporting polypeptide (hNTCP) (Homo sapiens, UniProt Q14973); test: inhibition of [3H]-taurocholate uptake in transiently transfected hNTCP-HEK293T cells; type: cell-based
T1 construct: gene SLC10A1
T1 sequence (Q14973 1-349): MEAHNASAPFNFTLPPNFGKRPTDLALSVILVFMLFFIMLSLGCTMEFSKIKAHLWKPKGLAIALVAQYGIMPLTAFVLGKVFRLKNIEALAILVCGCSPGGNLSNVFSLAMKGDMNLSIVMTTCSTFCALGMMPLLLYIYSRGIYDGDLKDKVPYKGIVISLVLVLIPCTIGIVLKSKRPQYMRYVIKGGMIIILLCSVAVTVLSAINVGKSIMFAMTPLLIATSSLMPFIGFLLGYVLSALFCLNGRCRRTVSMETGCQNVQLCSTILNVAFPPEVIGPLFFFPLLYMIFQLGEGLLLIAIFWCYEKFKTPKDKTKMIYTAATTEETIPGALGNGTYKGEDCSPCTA

[2] = molecular target: T2, apical sodium dependent bile acid transporter (hASBT) (Homo sapiens, UniProt Q12908); test: inhibition of [3H]-taurocholate uptake in stably transfected hASBT-MDCK cells; type: cell-based
T2 construct: gene SLC10A2
T2 sequence (Q12908 1-348): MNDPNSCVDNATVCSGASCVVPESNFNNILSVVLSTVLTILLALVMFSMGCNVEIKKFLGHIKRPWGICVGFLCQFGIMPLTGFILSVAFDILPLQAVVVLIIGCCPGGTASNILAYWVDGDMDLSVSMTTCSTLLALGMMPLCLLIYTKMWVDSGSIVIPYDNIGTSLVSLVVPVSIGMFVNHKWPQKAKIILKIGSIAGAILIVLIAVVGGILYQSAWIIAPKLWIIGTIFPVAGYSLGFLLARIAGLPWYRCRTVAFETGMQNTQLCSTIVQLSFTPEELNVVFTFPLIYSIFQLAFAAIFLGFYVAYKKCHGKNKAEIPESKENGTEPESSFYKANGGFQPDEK

[3] = substrate: C[C@H](CCC(=O)NCCS(=O)(=O)O)[C@H]1CC[C@H]2[C@@H]3[C@H](O)C[C@@H]4C[C@H](O)CC[C@]4(C)[C@H]3C[C@H](O)[C@]12C; test: cells, lysate or membranes; conditions: Na+

| Molecule | Ki [1] | Ki [2] | Km [3] |
| --- | --- | --- | --- |
| C[C@H](CCC(=O)NCC(=O)O)[C@H]1CC[C@H]2[C@@H]3[C@H](O)C[C@@H]4C[C@H](O)CC[C@]4(C)[C@H]3C[C@H](O)[C@]12C [GCA, glycocholic acid] | 2.47 ± 0.43 µM | 8.28 ± 0.57 µM | – |
| Na+/taurocholate cotransporting polypeptide (hNTCP) (Homo sapiens) (protein) MEAHNASAPFNFTLPPNFGKRPTDLALSVILVFMLFFIMLSLGCTMEFSKIKAHLWKPKGLAIALVAQYGIMPLTAFVLGKVFRLKNIEALAILVCGCSPGGNLSNVFSLAMKGDMNLSIVMTTCSTFCALGMMPLLLYIYSRGIYDGDLKDKVPYKGIVISLVLVLIPCTIGIVLKSKRPQYMRYVIKGGMIIILLCSVAVTVLSAINVGKSIMFAMTPLLIATSSLMPFIGFLLGYVLSALFCLNGRCRRTVSMETGCQNVQLCSTILNVAFPPEVIGPLFFFPLLYMIFQLGEGLLLIAIFWCYEKFKTPKDKTKMIYTAATTEETIPGALGNGTYKGEDCSPCTA | – | – | 2.14 ± 1.55 µM |
